Where two headings read alike, the source gives them in different places. Each block holds one compound with its values, some of them ahead of it.
Experiments:
Assay in all cases: 72-hour CellTiter-Glo 2.0 growth inhibition screen (single agent, 9x9 combination dose matrix);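 on Best CI Level: inhibition effect level at which the best CI was calculated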
Type in all cases: cell-based
SW837 = tested on: SW837;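 on Best CI Level: inhibition effect level at which the best CI was calculated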
KYSE-410 = tested on: KYSE-410;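 on Best CI Level: inhibition effect level at which the best CI was calculated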
AsPC-1 = tested on: AsPC-1;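 on Best CI Level: inhibition effect level at which the best CI was calculated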
LS-513 = tested on: LS-513;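 on Best CI Level: inhibition effect level at which the best CI was calculated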
HCC44 = tested on: HCC44;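 on Best CI Level: inhibition effect level at which the best CI was calculated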
[1] = SW837 (KRAS G12C), enhancer + MEI-522 (Voruciclib), 72 h;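 on Best CI Level: inhibition effect level at which the best CI was calculated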
[2] = SW837, Colorectal, Additional Single Agent Responses (inhibition, % I), 72 h
[3] = SW837, Colorectal, growth inhibition (GI), AUC, single agent, 72 h
[4] = enhancer combined with MEI-522 (Voruciclib), SW837 (Colorectal), 72 hours, inhibition data
[5] = KYSE-410 (KRAS G12C), enhancer + MEI-522 (Voruciclib), 72 h;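 on Best CI Level: inhibition effect level at which the best CI was calculated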
[6] = KYSE-410, Esophageal, Additional Single Agent Responses (inhibition, % I), 72 h
[7] = KYSE-410, Esophageal, growth inhibition (GI), AUC, single agent, 72 h
[8] = enhancer combined with MEI-522 (Voruciclib), KYSE-410 (Esophageal), 72 hours, inhibition data
[9] = AsPC-1 (KRAS G12D), enhancer + MEI-522 (Voruciclib), 72 h;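 on Best CI Level: inhibition effect level at which the best CI was calculated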
[10] = AsPC-1, Pancreas, Additional Single Agent Responses (inhibition, % I), 72 h
[11] = AsPC-1, Pancreas, growth inhibition (GI), AUC, single agent, 72 h
[12] = enhancer combined with MEI-522 (Voruciclib), AsPC-1 (Pancreas), 72 hours, inhibition data
[13] = LS-513 (KRAS G12D), enhancer + MEI-522 (Voruciclib), 72 h;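 on Best CI Level: inhibition effect level at which the best CI was calculated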
[14] = LS-513, Colorectal, Additional Single Agent Responses (inhibition, % I), 72 h
[15] = LS-513, Colorectal, growth inhibition (GI), AUC, single agent, 72 h
[16] = enhancer combined with MEI-522 (Voruciclib), LS-513 (Colorectal), 72 hours, inhibition data
[17] = HCC44 (KRAS G12C), enhancer + MEI-522 (Voruciclib), 72 h;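 on Best CI Level: inhibition effect level at which the best CI was calculated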
[18] = HCC44, Lung, Additional Single Agent Responses (inhibition, % I), 72 h
[19] = HCC44, Lung, growth inhibition (GI), AUC, single agent, 72 h
[20] = enhancer combined with MEI-522 (Voruciclib), HCC44 (Lung), 72 hours, inhibition data
[21] = SW837, Colorectal, growth inhibition (GI) curve, single agent, 72 h
[22] = KYSE-410, Esophageal, growth inhibition (GI) curve, single agent, 72 h
[23] = AsPC-1, Pancreas, growth inhibition (GI) curve, single agent, 72 h
[24] = LS-513, Colorectal, growth inhibition (GI) curve, single agent, 72 h
[25] = HCC44, Lung, growth inhibition (GI) curve, single agent, 72 h

SMILES: C=CC(=O)N1CCN(c2nc(=O)n(-c3c(C)ccnc3C(C)C)c3nc(-c4c(O)cccc4F)c(F)cc23)[C@@H](C)C1 [AMG510]
EC50 (SW837; Homo sapiens, SW837, 72 h, SW837, Colorectal, Additional Single Agent Responses (inhibition, % I), 72 h): 9.9 nM
EC50 (SW837; Homo sapiens, SW837, 72 h, SW837, Colorectal, growth inhibition (GI) curve, single agent, 72 h): 10.4 nM
Emax (SW837; Homo sapiens, SW837, Colorectal, Additional Single Agent Responses, 72 h, read-out: Max Response (% I)): 37%
GI50 (SW837; Homo sapiens, SW837, Colorectal, growth inhibition (GI) curve, single agent, 72 h): 162 nM
Emax (SW837; Homo sapiens, SW837, Colorectal, growth inhibition (GI), single agent, 72 h, read-out: Max Response (% GI)): 56%
Best CI (SW837; [1]): 0.72
Bliss Volume (SW837; [1]): 7.24
HSA volume (SW837; [1]): 6.16
Loewe Volume (SW837; [1]): 6.02
Synergy Score (SW837; [1]): 6.03
Response Area (SW837; [2]): 1.79
Response Area (SW837; [3]): 2.67
Best CI (SW837; [4]): 0.64
Best CI Level (SW837; [4]): 65
Bliss Volume (SW837; [4]): 2.98
HSA volume (SW837; [4]): 4.27
Loewe Volume (SW837; [4]): 4.27
Synergy Score (SW837; [4]): 2.77
EC50 (KYSE-410; Homo sapiens, KYSE-410, 72 h, KYSE-410, Esophageal, Additional Single Agent Responses (inhibition, % I), 72 h): 5.8 nM
EC50 (KYSE-410; Homo sapiens, KYSE-410, 72 h, KYSE-410, Esophageal, growth inhibition (GI) curve, single agent, 72 h): 6 nM
Emax (KYSE-410; Homo sapiens, KYSE-410, Esophageal, Additional Single Agent Responses, 72 h, read-out: Max Response (% I)): 20%
Emax (KYSE-410; Homo sapiens, KYSE-410, Esophageal, growth inhibition (GI), single agent, 72 h, read-out: Max Response (% GI)): 24%
Best CI (KYSE-410; [5]): 1.14
Bliss Volume (KYSE-410; [5]): 1.47
HSA volume (KYSE-410; [5]): 2.26
Loewe Volume (KYSE-410; [5]): 2.48
Synergy Score (KYSE-410; [5]): 1.71
Response Area (KYSE-410; [6]): 0.88
Response Area (KYSE-410; [7]): 1.06
Best CI (KYSE-410; [8]): 1.14
Bliss Volume (KYSE-410; [8]): 1.06
HSA volume (KYSE-410; [8]): 1.87
Loewe Volume (KYSE-410; [8]): 2.13
Synergy Score (KYSE-410; [8]): 1.19
Best CI Level (KYSE-410; enhancer combined with MEI-522 (Voruciclib), KYSE-410 (Esophageal), 72 hours, inhibition data, unit assumed): 45%
Best CI (AsPC-1; [9]): 0.47
Bliss Volume (AsPC-1; [9]): 2.91
HSA volume (AsPC-1; [9]): −3.63
Loewe Volume (AsPC-1; [9]): 0.38
Synergy Score (AsPC-1; [9]): 0.82
Response Area (AsPC-1; [10]): 0.00
Response Area (AsPC-1; [11]): 0.00
EC50 (AsPC-1; Homo sapiens, ASPC1, AsPC-1, Pancreas, Additional Single Agent Responses (inhibition, % I), 72 h): 3000 nM
Emax (AsPC-1; Homo sapiens, ASPC1, AsPC-1, Pancreas, Additional Single Agent Responses, 72 h, read-out: Max Response (% I)): 6%
Emax (AsPC-1; Homo sapiens, ASPC1, AsPC-1, Pancreas, growth inhibition (GI), single agent, 72 h, read-out: Max Response (% GI)): 8%
Best CI (AsPC-1; [12]): 0.64
Best CI Level (AsPC-1; [12]): 20
Bliss Volume (AsPC-1; [12]): 1.95
HSA volume (AsPC-1; [12]): −2.52
Loewe Volume (AsPC-1; [12]): 0.26
Synergy Score (AsPC-1; [12]): 0.32
EC50 (LS-513; Homo sapiens, LS-513, 72 h, LS-513, Colorectal, Additional Single Agent Responses (inhibition, % I), 72 h): 321 nM
EC50 (LS-513; Homo sapiens, LS-513, 72 h, LS-513, Colorectal, growth inhibition (GI) curve, single agent, 72 h): 320 nM
Emax (LS-513; Homo sapiens, LS-513, Colorectal, Additional Single Agent Responses, 72 h, read-out: Max Response (% I)): 3%
Emax (LS-513; Homo sapiens, LS-513, Colorectal, growth inhibition (GI), single agent, 72 h, read-out: Max Response (% GI)): 4%
Best CI (LS-513; [13]): 0.70
Bliss Volume (LS-513; [13]): 0.20
HSA volume (LS-513; [13]): −2.06
Loewe Volume (LS-513; [13]): −0.76
Synergy Score (LS-513; [13]): 1.51
Response Area (LS-513; [14]): −0.19
Response Area (LS-513; [15]): −0.23
Best CI (LS-513; [16]): 0.82
Best CI Level (LS-513; [16]): 20
Bliss Volume (LS-513; [16]): −0.02
HSA volume (LS-513; [16]): −1.47
Loewe Volume (LS-513; [16]): −0.89
Synergy Score (LS-513; [16]): 0.37
Best CI (HCC44; [17]): 0.63
Bliss Volume (HCC44; [17]): 2.46
HSA volume (HCC44; [17]): 2.64
Loewe Volume (HCC44; [17]): 2.30
Synergy Score (HCC44; [17]): 4.36
Response Area (HCC44; [18]): 1.52
Response Area (HCC44; [19]): 1.97
EC50 (HCC44; Homo sapiens, HCC44, 72 h, HCC44, Lung, Additional Single Agent Responses (inhibition, % I), 72 h): 4.1 nM
EC50 (HCC44; Homo sapiens, HCC44, 72 h, HCC44, Lung, growth inhibition (GI) curve, single agent, 72 h): 4.6 nM
Emax (HCC44; Homo sapiens, HCC44, Lung, Additional Single Agent Responses, 72 h, read-out: Max Response (% I)): 32%
Emax (HCC44; Homo sapiens, HCC44, Lung, growth inhibition (GI), single agent, 72 h, read-out: Max Response (% GI)): 41%
Best CI (HCC44; [20]): 0.67
Bliss Volume (HCC44; [20]): −0.82
HSA volume (HCC44; [20]): 1.08
Loewe Volume (HCC44; [20]): 0.97
Synergy Score (HCC44; [20]): 1.16
Best CI Level (HCC44; enhancer combined with MEI-522 (Voruciclib), HCC44 (Lung), 72 hours, inhibition data, unit assumed): 45%

EC50 (SW837; [2]): 1990 nM
IC50 (SW837; [2]): 2090 nM
EC50 (SW837; [21]): 2100 nM
GI50 (SW837; [21]): 1750 nM
EC50 (AsPC-1; [10]): 1330 nM
IC50 (AsPC-1; [10]): 2320 nM
EC50 (AsPC-1; [23]): 1350 nM
GI50 (AsPC-1; [23]): 1340 nM
EC50 (HCC44; [18]): 770 nM
IC50 (HCC44; [18]): 829 nM
EC50 (HCC44; [25]): 1210 nM
GI50 (HCC44; [25]): 730 nM
SMILES: CN1CC[C@@H](c2c(O)cc(O)c3c(=O)cc(-c4ccc(C(F)(F)F)cc4Cl)oc23)[C@@H]1CO [MEI-522(Voruciclib)]
Response Area (SW837; [2]): 2.44
Max Response (% I) (SW837; SW837, Colorectal, Additional Single Agent Responses, 72 h): 90 % I
Response Area (SW837; [3]): 4.48
Max Response (% GI) (SW837; SW837, Colorectal, growth inhibition (GI), single agent, 72 h): 166 % GI
EC50 (KYSE-410; [6]): 1740 nM
IC50 (KYSE-410; [6]): 1900 nM
Response Area (KYSE-410; [6]): 1.97
Max Response (% I) (KYSE-410; KYSE-410, Esophageal, Additional Single Agent Responses, 72 h): 72 % I
EC50 (KYSE-410; [22]): 1750 nM
GI50 (KYSE-410; [22]): 1800 nM
Response Area (KYSE-410; [7]): 2.41
Max Response (% GI) (KYSE-410; KYSE-410, Esophageal, growth inhibition (GI), single agent, 72 h): 87 % GI
Response Area (AsPC-1; [10]): 1.96
Max Response (% I) (AsPC-1; AsPC-1, Pancreas, Additional Single Agent Responses, 72 h): 68 % I
Response Area (AsPC-1; [11]): 2.86
Max Response (% GI) (AsPC-1; AsPC-1, Pancreas, growth inhibition (GI), single agent, 72 h): 99 % GI
EC50 (LS-513; [14]): 549 nM
IC50 (LS-513; [14]): 633 nM
Response Area (LS-513; [14]): 2.94
Max Response (% I) (LS-513; LS-513, Colorectal, Additional Single Agent Responses, 72 h): 90 % I
EC50 (LS-513; [24]): 878 nM
GI50 (LS-513; [24]): 529 nM
Response Area (LS-513; [15]): 4.51
Max Response (% GI) (LS-513; LS-513, Colorectal, growth inhibition (GI), single agent, 72 h): 147 % GI
Response Area (HCC44; [18]): 2.85
Max Response (% I) (HCC44; HCC44, Lung, Additional Single Agent Responses, 72 h): 91 % I
Response Area (HCC44; [19]): 4.97
Max Response (% GI) (HCC44; HCC44, Lung, growth inhibition (GI), single agent, 72 h): 161 % GI

— patent publication US20240016781A1, “TREATMENT OF KRAS MUTANT CANCERS” (MEI Pharma, Inc., priority 2020, published 2024)
